The assay concerns the target T1, TNKS1 (Homo sapiens, UniProt O95271).
T1 construct: purchased BPS Bioscience, San Diego, USA 80579 (TNKS1 Histone Ribosylation Assay Kit)
T1 sequence (O95271 1-1327): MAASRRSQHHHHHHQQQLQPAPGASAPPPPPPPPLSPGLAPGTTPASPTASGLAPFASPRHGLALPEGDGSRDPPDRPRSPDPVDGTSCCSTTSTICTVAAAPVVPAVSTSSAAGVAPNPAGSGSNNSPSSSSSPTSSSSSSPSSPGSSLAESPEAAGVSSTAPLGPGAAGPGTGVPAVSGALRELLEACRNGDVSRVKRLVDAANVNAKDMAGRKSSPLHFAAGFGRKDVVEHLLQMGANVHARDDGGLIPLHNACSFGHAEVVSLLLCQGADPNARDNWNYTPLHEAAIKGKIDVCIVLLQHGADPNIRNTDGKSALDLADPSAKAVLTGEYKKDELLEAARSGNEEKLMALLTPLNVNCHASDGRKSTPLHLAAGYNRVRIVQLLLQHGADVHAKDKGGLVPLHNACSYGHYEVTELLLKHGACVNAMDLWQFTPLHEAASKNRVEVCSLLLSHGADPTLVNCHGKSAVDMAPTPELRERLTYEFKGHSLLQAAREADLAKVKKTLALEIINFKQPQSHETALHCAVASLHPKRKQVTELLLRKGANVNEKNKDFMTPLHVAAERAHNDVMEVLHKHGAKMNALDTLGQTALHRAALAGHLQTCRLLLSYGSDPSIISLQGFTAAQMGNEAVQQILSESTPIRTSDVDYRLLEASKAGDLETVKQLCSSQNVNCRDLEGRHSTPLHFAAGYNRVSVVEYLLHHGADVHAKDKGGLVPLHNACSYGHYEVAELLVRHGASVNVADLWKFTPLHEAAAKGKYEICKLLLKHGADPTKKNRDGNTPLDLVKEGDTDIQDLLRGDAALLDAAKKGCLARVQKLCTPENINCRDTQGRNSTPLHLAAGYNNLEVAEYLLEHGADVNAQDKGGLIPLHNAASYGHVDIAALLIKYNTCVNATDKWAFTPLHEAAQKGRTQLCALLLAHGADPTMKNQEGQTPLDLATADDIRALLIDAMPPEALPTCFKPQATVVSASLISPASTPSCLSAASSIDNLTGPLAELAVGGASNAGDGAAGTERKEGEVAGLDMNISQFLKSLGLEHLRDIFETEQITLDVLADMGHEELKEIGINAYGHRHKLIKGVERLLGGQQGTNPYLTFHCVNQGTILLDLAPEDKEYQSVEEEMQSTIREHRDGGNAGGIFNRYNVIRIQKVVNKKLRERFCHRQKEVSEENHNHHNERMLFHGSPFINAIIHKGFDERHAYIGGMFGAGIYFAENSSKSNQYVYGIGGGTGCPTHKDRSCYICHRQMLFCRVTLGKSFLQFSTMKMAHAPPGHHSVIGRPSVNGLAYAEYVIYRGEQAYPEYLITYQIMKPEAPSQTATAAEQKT
The assay can be described thus: TNKS1 Assay B (auto-parsylation, [3H]-NAD+ SPA). The class given is biochemical. As to conditions: 6 nM TNKS1, auto-parsylation, over night at room temperature.
As for `COCC(C)NC(=O)c1nc[nH]c1C(=O)N[C@H]1CC[C@H](C(=O)Nc2cc(F)c(F)cc2Cl)CC1` (stereo partly drawn) [Example 87, N^5-{trans-4-[(2-chloro-4,5-difluorophenyl)carbamoyl]cyclohexyl}-N^4-(1-methoxypropan-2-yl)-1H-imidazole-4,5-dicarboxamide], the midpoint of inhibition, the IC50, lay at 27 nM. This lies in the double-digit nanomolar range.

Compound `COC[C@H](C)NC(=O)c1nc[nH]c1C(=O)N[C@H]1CC[C@H](C(=O)Nc2ccc(F)cc2Cl)CC1` [Example 83, N^5-{trans-4-[(2-chloro-4-fluorophenyl)carbamoyl]cyclohexyl}-N^4-[(2S)-1-methoxypropan-2-yl]-1H-imidazole-4,5-dicarboxamide] had an IC50 of 610 nM. Turning to `O=C(N[C@H]1CC[C@H](C(=O)Nc2ccc(F)cc2Cl)CC1)c1[nH]cnc1C(=O)N1CCC1` [Example 23, 4-(azetidin-1-ylcarbonyl)-N-{trans-4-[(2-chloro-4-fluorophenyl)carbamoyl]cyclohexyl}-1H-imidazole-5-carboxamide], the IC50 worked out at 21 nM.

Turning to `CNC(=O)c1nc[nH]c1C(=O)N[C@H]1CC[C@H](C(=O)Nc2ccc(F)cc2Cl)CC1` [Example 1, N^5-{trans-4-[(2-chloro-4-fluorophenyl)carbamoyl]cyclohexyl}-N^4-methyl-1H-imidazole-4,5-dicarboxamide], the IC50 is 73 nM.

`Cc1nc2c(C(=O)N[C@H]3CC[C@H](C(=O)Nc4c(F)cc(F)cc4Cl)CC3)cnn2c2c1CCC2` [Example 363, N-{trans-4-[(2-chloro-4,6-difluorophenyl)carbamoyl]cyclohexyl}-5-methyl-7,8-dihydro-6H-cyclopenta[e]pyrazolo[1,5-a]pyrimidine-3-carboxamide]: it took 57 nM to reach half-maximal inhibition (IC50). In the case of `CNC(=O)c1[nH]cnc1C(=O)N[C@@H]1CC[C@@H](C(=O)Nc2ccc(F)cc2Cl)C[C@@H]1F` (racemic) [Example 31, N^4-{(1α,2α,4β)-4-[(2-chloro-4-fluorophenyl)carbamoyl]-2-fluorocyclohexyl}-N^5-methyl-1H-imidazole-4,5-dicarboxamide], half-maximal inhibition (IC50) required 150 nM. With `CNC(=O)c1ocnc1C(=O)N[C@H]1CC[C@H](C(=O)Nc2ccc(F)cc2Cl)CC1` [Example 30] the figure was over 10000 nM; with `O=C(NCC1CCCO1)c1nc[nH]c1C(=O)N[C@H]1CC[C@H](C(=O)Nc2cc(F)c(F)cc2Cl)CC1` (stereo partly drawn) [Example 86, N^5-{trans-4-[(2-chloro-4,5-difluorophenyl)carbamoyl]cyclohexyl}-N^4-(tetrahydrofuran-2-ylmethyl)-1H-imidazole-4,5-dicarboxamide], 30 nM. The result for `COC(C)(C)CNC(=O)c1nc[nH]c1C(=O)N[C@H]1CC[C@H](C(=O)Nc2ccc(F)cc2Cl)CC1` [Example 73, N^5-{trans-4-[(2-chloro-4-fluorophenyl)carbamoyl]cyclohexyl}-N^4-(2-methoxy-2-methylpropyl)-1H-imidazole-4,5-dicarboxamide] reads 270 nM; that for `CNC(=O)c1[nH]cnc1C(=O)N[C@@H]1CC[C@@H](C(=O)Nc2ccc(F)cc2Cl)CC1(F)F` (stereo in doubt) [Example 32, N^4-{(trans)-4-[(2-chloro-4-fluorophenyl)carbamoyl]-2,2-difluorocyclohexyl}-N^5-methyl-1H-imidazole-4,5-dicarboxamide], 360 nM. In the case of `O=C(NCC1CCCO1)c1nc[nH]c1C(=O)N[C@H]1CC[C@H](C(=O)Nc2cc(N3CCOCC3)ccc2Cl)CC1` (stereo partly drawn) [Example 89, N^5-(trans-4-{[2-chloro-5-(morpholin-4-yl)phenyl]carbamoyl}cyclohexyl)-N^4-(tetrahydrofuran-2-ylmethyl)-1H-imidazole-4,5-dicarboxamide], it took 1200 nM to reach half-maximal inhibition (IC50). With `O=C(NCC1CCCO1)c1nc[nH]c1C(=O)N[C@H]1CC[C@H](C(=O)Nc2ccc(F)cc2Cl)CC1` (stereo partly drawn) [Example 78, N^5-{trans-4-[(2-chloro-4-fluorophenyl)carbamoyl]cyclohexyl}-N^4-(tetrahydrofuran-2-ylmethyl)-1H-imidazole-4,5-dicarboxamide] the figure was 75 nM; with `COC[C@@H](C)NC(=O)c1nc[nH]c1C(=O)N[C@H]1CC[C@H](C(=O)Nc2ccc(F)cc2Cl)CC1` [Example 84, N^5-{trans-4-[(2-chloro-4-fluorophenyl)carbamoyl]cyclohexyl}-N^4-[(2R)-1-methoxypropan-2-yl]-1H-imidazole-4,5-dicarboxamide], 370 nM; with `COCC(C)NC(=O)c1nc[nH]c1C(=O)N[C@H]1CC[C@H](C(=O)Nc2c(F)cc(F)cc2Cl)CC1` (stereo partly drawn) [Example 65, N^5-{trans-4-[(2-chloro-4,6-difluorophenyl)carbamoyl]cyclohexyl}-N^4-(1-methoxypropan-2-yl)-1H-imidazole-4,5-dicarboxamide], 170 nM. The result for `Cc1cc(N2CC[C@]3(CC[C@@H](NC(=O)c4[nH]cnc4C(=O)NCCN4CCC(C)CC4)CC3)C2=O)c(Cl)cc1F` [Example 290, N^5-[(trans)-2-(2-chloro-4-fluoro-5-methylphenyl)-1-oxo-2-azaspiro[4.5]dec-8-yl]-N^4-[2-(4-methylpiperidin-1-yl)ethyl]-1H-imidazole-4,5-dicarboxamide] reads 6.2 nM; that for `COC(C)(C)CNC(=O)c1nc[nH]c1C(=O)N[C@H]1CC[C@H](C(=O)Nc2cc(N3CCOCC3)ccc2Cl)CC1` [Example 90, N^5-(trans-4-{[2-chloro-5-(morpholin-4-yl)phenyl]carbamoyl}cyclohexyl)-N^4-(2-methoxy-2-methylpropyl)-1H-imidazole-4,5-dicarboxamide], 3100 nM.

For the compound `Nc1nn2cccnc2c1C(=O)N[C@H]1CC[C@H](C(=O)Nc2ccc(F)cc2Cl)CC1` [Example 59, 2-amino-N-{trans-4-[(2-chloro-4-fluorophenyl)carbamoyl]cyclohexyl}pyrazolo[1,5-a]pyrimidine-3-carboxamide], the IC50 stood at 950 nM. On to `CN(C)C1CN(C(=O)c2nc[nH]c2C(=O)N[C@H]2CC[C@H](C(=O)Nc3ccc(F)cc3Cl)CC2)C1` [Example 26, N-{trans-4-[(2-chloro-4-fluorophenyl)carbamoyl]cyclohexyl}-4-{[3-(dimethylamino)azetidin-1-yl]carbonyl}-1H-imidazole-5-carboxamide], for which the IC50 was 62 nM. In the case of `CC(C)OCCNC(=O)c1nc[nH]c1C(=O)N[C@H]1CC[C@H](C(=O)Nc2ccc(F)cc2Cl)CC1` [Example 76, N^5-{trans-4-[(2-chloro-4-fluorophenyl)carbamoyl]cyclohexyl}-N^4-(2-isopropoxyethyl)-1H-imidazole-4,5-dicarboxamide], the IC50 is 94 nM. `Cc1cc(C(C)(C)C)n2ncc(C(=O)N[C@H]3CC[C@H](C(=O)Nc4ccc(F)cc4Cl)CC3)c2n1` [Example 60, 7-tert-butyl-N-{trans-4-[(2-chloro-4-fluorophenyl)carbamoyl]cyclohexyl}-5-methylpyrazolo[1,5-a]pyrimidine-3-carboxamide] yielded an IC50 of over 10000 nM. `Cc1cnc2c(C(=O)N[C@H]3CC[C@H](C(=O)Nc4ccc(F)cc4Cl)CC3)cnn2c1` [Example 61, N-{trans-4-[(2-chloro-4-fluorophenyl)carbamoyl]cyclohexyl}-6-methylpyrazolo[1,5-a]pyrimidine-3-carboxamide] registered an IC50 of 120 nM.

The compound `CNC(=O)c1[nH]cnc1C(=O)NC1CCC(F)(C(=O)Nc2ccc(F)cc2Cl)CC1` (single isomer, unassigned) [Example 366, N^4-{4-[(2-chloro-4-fluorophenyl)carbamoyl]-4-fluorocyclohexyl}-N^5-methyl-1H-imidazole-4,5-dicarboxamide (single isomer)] showed an IC50 of over 10000 nM. The result for `COC(C)CNC(=O)c1nc[nH]c1C(=O)N[C@H]1CC[C@H](C(=O)Nc2c(F)cc(F)cc2Cl)CC1` (stereo partly drawn) [Example 68, N^5-{trans-4-[(2-chloro-4,6-difluorophenyl)carbamoyl]cyclohexyl}-N^4-(2-methoxypropyl)-1H-imidazole-4,5-dicarboxamide] reads 60 nM.

(Values after patent publication US20180148418A1, “AMIDO-SUBSTITUTED CYCLOHEXANE DERIVATIVES” (Bayer Pharma Aktiengesellschaft, priority 2015, published 2018).)
